From US11337976B2 (Plexxikon Inc., priority 2011, dated 2022)

test system: A375 melanoma cells (B-Raf V600E mutation); experiment: A375 (A375_P-ERK) cell activity / cell growth inhibition assay; format: cell-based, human; conditions: Homo sapiens, A-375; A375 cells (text: A375_P-ERK)
Protocol: Compounds are assessed in a variety of cell based assays. For example human cell lines with B-RafV600E mutation (A375 melanoma, SKMEL3 melanoma, and COLO205 colon adenocarcinoma), as well as tumorigenic cell lines with wild-type B-RAF (SW620 colon adenocarcinoma) or with Ras mutations (SKMEL2 melanoma and IPC298 melanoma).
On day 1, cells are counted, then centrifuged in a conical tube for 5 minutes at 1000 rpm.
On day 2, compound at a maximum concentration of 5 mM is serially diluted 1:3 (e.g. 10 μL with 30 μL dimethyl sulfoxide) for a total of 8 point titration with DMSO as a control. A 1 μL aliquot of each dilution point and control is added to 249 μL growth media and 50 μL is added to a well containing cells, providing 10 μM compound at the maximum concentration point. The cells are incubated for 3 days at 37° C. in 5% CO2.
ATPlite is added 25 μL to each well, shake for 2 minutes, and the cells are incubated at room temperature for 10 minutes, then luminescence is read on Safire reader. The measured luminescence correlates directly with cell number, such that the reading as a function of compound concentration is used to determine the IC50 value.

Row | IC50 | Structure (SMILES)
1 | < 1 µM | CCN(C)S(=O)(=O)Nc1ccc(F)c(C(=O)c2c[nH]c3ncc(Cl)cc23)c1F [P-0012, 5-chloro-3-[3-[[ethyl(methyl)sulfamoyl]amino]-2,6-difluoro-benzoyl]-1H-pyrrolo[2,3-b]pyridine]
2 | < 1 µM | CCN(C)S(=O)(=O)Nc1ccc(F)c(C(=O)c2c[nH]c3ncc(-c4cnc(OC)nc4)cc23)c1F [P-0014]
3 | < 1 µM | O=C(c1c(F)ccc(NS(=O)(=O)N2CCCC2)c1F)c1c[nH]c2ncc(F)c(NCC3CC3)c12 [P-0016, N-[3-[4-(cyclopropylmethylamino)-5-fluoro-1H-pyrrolo[2,3-b]pyridine-3-carbonyl]-2,4-difluoro-phenyl]pyrrolidine-1-sulfonamide]
4 | < 1 µM | CCN(C)S(=O)(=O)Nc1ccc(F)c(C(=O)c2c[nH]c3ncc(C#N)cc23)c1F [P-0017, 5-cyano-3-[3-[[ethyl(methyl)sulfamoyl]amino]-2,6-difluoro-benzoyl]-1H-pyrrolo[2,3-b]pyridine]
5 | < 1 µM | CCN(C)S(=O)(=O)Nc1cccc(C(=O)c2c[nH]c3ncc(Cl)cc23)c1F [P-0018, 5-chloro-3-[3-[[ethyl(methyl)sulfamoyl]amino]-2-fluoro-benzoyl]-1H-pyrrolo[2,3-b]pyridine]
6 | < 1 µM | CCN(C)S(=O)(=O)Nc1cccc(C(=O)c2c[nH]c3ncc(-c4ccc(Cl)cc4)cc23)c1F [P-0019]
7 | < 1 µM | CCN(C)S(=O)(=O)Nc1cccc(C(=O)c2c[nH]c3ncc(-c4cnc(OC)nc4)cc23)c1F [P-0020]
8 | < 1 µM | Cc1cnc2[nH]cc(C(=O)c3cccc(NS(=O)(=O)N4CCCC4)c3F)c2c1 [P-0023, N-[2-fluoro-3-(5-methyl-1H-pyrrolo[2,3-b]pyridine-3-carbonyl)phenyl]pyrrolidine-1-sulfonamide]
9 | < 1 µM | COc1ncc(-c2cnc3[nH]cc(C(=O)c4cccc(NS(=O)(=O)N(C)C5CC5)c4F)c3c2)cn1 [P-0025]
10 | > 1 µM | CNS(=O)(=O)Nc1cccc(C(=O)c2c[nH]c3ncc(-c4cnc(OC)nc4)cc23)c1F [P-0026]
11 | < 1 µM | CCN(C)S(=O)(=O)Nc1cccc(C(=O)c2c[nH]c3ncc(-c4ccc(C)nc4)cc23)c1F [P-0033]
12 | < 1 µM | CCN(C)S(=O)(=O)Nc1cccc(C(=O)c2c[nH]c3ncc(-c4ccc(F)cc4)cc23)c1F [P-0034]
13 | < 1 µM | CN(C)S(=O)(=O)Nc1cccc(C(=O)c2c[nH]c3ncc(-c4ccc(F)cc4)cc23)c1F [P-0035]
14 | < 1 µM | CCN(C)S(=O)(=O)Nc1cccc(C(=O)c2c[nH]c3ncc(Br)cc23)c1F [P-0038, 5-bromo-3-[3-[[ethyl(methyl)sulfamoyl]amino]-2-fluoro-benzoyl]-1H-pyrrolo[2,3-b]pyridine]
15 | < 1 µM | CCN(C)S(=O)(=O)Nc1cccc(C(=O)c2c[nH]c3ncc(C#N)cc23)c1F [P-0039, 5-cyano-3-[3-[[ethyl(methyl)sulfamoyl]amino]-2-fluoro-benzoyl]-1H-pyrrolo[2,3-b]pyridine]
16 | < 1 µM | CCCN(C)S(=O)(=O)Nc1cccc(C(=O)c2c[nH]c3ncc(-c4cnc(OC)nc4)cc23)c1F [P-0040, 3-[2-fluoro-3-[[methyl(propyl)sulfamoyl]amino]benzoyl]-5-(2-methoxypyrimidin-5-yl)-1H-pyrrolo[2,3-b]pyridine]
17 | < 1 µM | Cn1cc(-c2cnc3[nH]cc(C(=O)c4cccc(NS(=O)(=O)CC5CC5)c4F)c3c2)cn1 [P-0042, 1-cyclopropyl-N-[2-fluoro-3-[5-(1-methylpyrazol-4-yl)-1H-pyrrolo[2,3-b]pyridine-3-carbonyl]phenyl]methanesulfonamide]
18 | < 1 µM | O=C(c1cccc(NS(=O)(=O)N2CCCC2)c1F)c1c[nH]c2ncc(-c3cccnc3)cc12 [P-0043, N-[2-fluoro-3-[5-(3-pyridyl)-1H-pyrrolo[2,3-b]pyridine-3-carbonyl]phenyl]pyrrolidine-1-sulfonamide]
